# Experimental data reported in patent US8481536B2, “Benzotriazine inhibitors of kinases” (TargeGen, Inc., priority 2004, dated 2013).
# Tests used:
# Type in all cases: biochemical
# [1] = biological target: Pdgfrβ (Homo sapiens (Human), UniProt P09619); assay: Pdgfrβ kinase inhibition in vitro (luciferase-based residual ATP); conditions: 500 nM ATP, PTK2 peptide, 60 minutes at 37 C; read-out: PDGFR IC50
# Procedure: (§1) The ability of compounds of the present invention to inhibit the activity of three groups of kinases was tested. Kinases tested included the src family (primarily src and yes), some angiogenic growth factor receptors (Fgfr1, Vegfr, and Pdgfrβ) and the ephrin, EphB4. All kinase reactions were conducted in 96-well plates with a final reaction volume of 50 ul.
# Pdgfrβ (0.16 ug/well, Panvera/Invitrogen) 500 nM ATP and the PTK2 peptide (700 uM) were combined with compound and reaction buffer as noted above for src. The reaction was incubated for 60 minutes at 37 C, and the residual ATP concentration was determined using the luciferase-based technique also noted above.
# (§2) The test results for inhibition of Src kinase are presented in Table 1, and the test results for inhibition of some other kinases (i.e., Yes, EphB4, and Pdgfrβ) are presented in Table 2.
# [2] = biological target: Recombinant human c-Src (Homo sapiens (Human), UniProt P12931); assay: Src kinase inhibition in vitro (luciferase-based residual ATP, KinaseGlo); conditions: ATP 3 μM, PTK2 substrate, 90 minutes at room temperature
# Recombinant human c-Src, sequence (P12931 whole entry, looked up): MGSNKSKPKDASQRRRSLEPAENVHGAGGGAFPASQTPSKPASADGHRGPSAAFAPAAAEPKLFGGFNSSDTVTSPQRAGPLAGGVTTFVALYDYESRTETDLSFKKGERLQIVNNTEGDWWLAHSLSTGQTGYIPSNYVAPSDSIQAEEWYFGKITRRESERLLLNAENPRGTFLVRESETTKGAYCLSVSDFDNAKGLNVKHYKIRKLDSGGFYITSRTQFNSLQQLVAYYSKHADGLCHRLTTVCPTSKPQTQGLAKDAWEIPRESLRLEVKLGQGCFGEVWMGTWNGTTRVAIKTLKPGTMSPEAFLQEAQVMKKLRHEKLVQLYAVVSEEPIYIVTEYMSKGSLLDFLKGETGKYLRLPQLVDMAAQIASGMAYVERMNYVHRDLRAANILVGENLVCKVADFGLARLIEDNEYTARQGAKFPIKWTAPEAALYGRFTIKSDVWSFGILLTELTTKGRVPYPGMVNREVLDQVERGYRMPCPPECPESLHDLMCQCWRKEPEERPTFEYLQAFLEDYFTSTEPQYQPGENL
# Procedure: as §1
# (§3) After reacting for about 90 minutes at room temperature, residual ATP was determined using a luciferase-based assay (KinaseGlo, Promega Corp.) as a measure of kinase activity. Data from four wells were then averaged and used to determine IC50 values for the test compounds (Prism software package, GraphPad Software, San Diego Calif.).
# as §2
# [3] = biological target: Recombinant human Yes (Homo sapiens (Human), UniProt P07947); assay: Yes kinase inhibition in vitro (luciferase-based residual ATP, KinaseGlo); conditions: ATP 3 μM, PTK2 substrate, 90 minutes at room temperature
# Recombinant human Yes, sequence (P07947 whole entry): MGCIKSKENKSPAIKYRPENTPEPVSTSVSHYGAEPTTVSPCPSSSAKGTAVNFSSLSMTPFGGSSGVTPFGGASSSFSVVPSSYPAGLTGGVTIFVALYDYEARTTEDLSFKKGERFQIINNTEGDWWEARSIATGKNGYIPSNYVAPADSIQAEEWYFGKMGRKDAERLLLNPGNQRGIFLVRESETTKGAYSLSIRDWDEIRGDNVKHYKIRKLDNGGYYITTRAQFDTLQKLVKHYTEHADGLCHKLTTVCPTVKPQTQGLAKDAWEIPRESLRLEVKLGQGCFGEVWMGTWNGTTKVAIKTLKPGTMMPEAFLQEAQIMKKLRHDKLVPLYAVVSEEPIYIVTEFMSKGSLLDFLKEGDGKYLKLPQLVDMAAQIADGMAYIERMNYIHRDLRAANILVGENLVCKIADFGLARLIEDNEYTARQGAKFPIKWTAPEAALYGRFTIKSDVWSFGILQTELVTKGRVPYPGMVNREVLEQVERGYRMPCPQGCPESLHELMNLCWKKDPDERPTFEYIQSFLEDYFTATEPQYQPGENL
# Procedure: as §1, §3, §2
# [4] = biological target: EphB4 (Homo sapiens (Human), UniProt P54760); assay: EphB4 kinase inhibition in vitro (luciferase-based residual ATP); conditions: 6 uM ATP, poly(glu4tyr), 60 minutes at 37 C
# EphB4, sequence (P54760 16-987): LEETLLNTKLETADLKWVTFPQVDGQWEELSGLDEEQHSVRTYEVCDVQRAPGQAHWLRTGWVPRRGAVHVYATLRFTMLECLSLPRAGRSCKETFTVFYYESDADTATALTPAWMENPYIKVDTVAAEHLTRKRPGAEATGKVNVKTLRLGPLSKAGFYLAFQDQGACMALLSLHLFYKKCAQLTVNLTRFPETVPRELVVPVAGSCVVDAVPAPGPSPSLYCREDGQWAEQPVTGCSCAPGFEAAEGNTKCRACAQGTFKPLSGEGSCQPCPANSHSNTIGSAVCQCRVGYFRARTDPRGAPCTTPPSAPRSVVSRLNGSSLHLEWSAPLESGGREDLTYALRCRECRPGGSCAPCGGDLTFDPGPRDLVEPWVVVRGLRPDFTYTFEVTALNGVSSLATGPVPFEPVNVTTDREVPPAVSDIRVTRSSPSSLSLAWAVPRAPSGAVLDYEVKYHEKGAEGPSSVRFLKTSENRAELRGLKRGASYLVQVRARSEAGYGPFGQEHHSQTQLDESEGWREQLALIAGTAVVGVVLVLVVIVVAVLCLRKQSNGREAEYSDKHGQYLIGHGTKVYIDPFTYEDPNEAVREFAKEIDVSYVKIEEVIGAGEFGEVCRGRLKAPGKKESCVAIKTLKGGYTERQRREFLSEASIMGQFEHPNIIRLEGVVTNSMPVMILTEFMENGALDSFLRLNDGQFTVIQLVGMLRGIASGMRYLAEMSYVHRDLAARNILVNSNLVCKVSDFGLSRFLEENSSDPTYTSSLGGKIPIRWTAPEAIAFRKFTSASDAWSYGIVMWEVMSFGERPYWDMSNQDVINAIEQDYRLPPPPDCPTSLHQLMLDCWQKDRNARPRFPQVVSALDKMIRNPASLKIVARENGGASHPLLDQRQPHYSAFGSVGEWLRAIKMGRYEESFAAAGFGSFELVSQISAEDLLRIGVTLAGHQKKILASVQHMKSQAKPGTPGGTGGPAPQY
# Procedure: as §1, §2
# Pdgfrβ, sequence (P09619 33-1106): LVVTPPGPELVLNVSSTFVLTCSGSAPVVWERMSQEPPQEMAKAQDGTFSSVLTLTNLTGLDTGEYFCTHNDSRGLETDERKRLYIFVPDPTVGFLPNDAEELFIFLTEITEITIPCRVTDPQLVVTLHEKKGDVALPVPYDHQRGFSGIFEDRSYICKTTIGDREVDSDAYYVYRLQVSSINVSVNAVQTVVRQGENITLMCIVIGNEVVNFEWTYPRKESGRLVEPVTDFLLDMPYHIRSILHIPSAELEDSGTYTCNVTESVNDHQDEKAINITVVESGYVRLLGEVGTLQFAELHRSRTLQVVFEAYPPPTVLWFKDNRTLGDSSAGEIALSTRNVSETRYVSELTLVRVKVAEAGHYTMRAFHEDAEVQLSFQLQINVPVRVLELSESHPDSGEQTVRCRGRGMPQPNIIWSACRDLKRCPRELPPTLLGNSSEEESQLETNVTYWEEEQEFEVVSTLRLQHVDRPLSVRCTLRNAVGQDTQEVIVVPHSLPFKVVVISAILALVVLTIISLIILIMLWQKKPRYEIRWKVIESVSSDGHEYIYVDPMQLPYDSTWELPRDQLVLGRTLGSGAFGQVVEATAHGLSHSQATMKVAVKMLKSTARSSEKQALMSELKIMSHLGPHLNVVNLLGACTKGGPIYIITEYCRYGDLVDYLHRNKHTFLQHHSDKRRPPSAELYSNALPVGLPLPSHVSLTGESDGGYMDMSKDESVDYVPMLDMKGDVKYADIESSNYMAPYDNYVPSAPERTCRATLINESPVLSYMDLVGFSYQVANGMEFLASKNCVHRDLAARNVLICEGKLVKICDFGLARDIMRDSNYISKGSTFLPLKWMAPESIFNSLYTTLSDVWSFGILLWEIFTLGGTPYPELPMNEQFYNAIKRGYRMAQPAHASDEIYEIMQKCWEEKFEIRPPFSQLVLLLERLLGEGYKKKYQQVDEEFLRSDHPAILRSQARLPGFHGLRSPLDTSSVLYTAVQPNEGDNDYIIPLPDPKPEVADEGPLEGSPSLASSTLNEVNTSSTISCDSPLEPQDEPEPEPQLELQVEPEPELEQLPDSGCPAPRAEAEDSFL
SMILES,IC50 [1],IC50 [2],IC50 [3],IC50 [4]
"Cc1ccccc1-c1cc2nnc(Nc3ccc(S(=O)(=O)NCCN4CCCC4)cc3)nc2cc1C [4-(6-methyl-7-o-tolyl-benzo[1,2,4]triazin-3-ylamino)-N-(2-pyrrolidin-1-yl-ethyl)-benzenesulfonamide]",24.3 nM,10.2 nM,–,–
"Cc1cc2nc(Nc3ccc(S(=O)(=O)NCCN4CCCC4)cc3)nnc2cc1-c1c(C)cccc1C [4-[7-(2,6-dimethyl-phenyl)-6-methyl-benzo[1,2,4]triazin-3-ylamino]-N-(2-pyrrolidin-1-yl-ethyl)-benzenesulfonamide]",48.1 nM,10.5 nM,–,–
"Cc1cc(F)ccc1-c1cc2nnc(Nc3ccc(S(=O)(=O)NCCN4CCCC4)cc3)nc2cc1C [4-[7-(4-fluoro-2-methyl-phenyl)-6-methyl-benzo[1,2,4]triazin-3-ylamino]-N-(2-pyrrolidin-1-yl-ethyl)-benzenesulfonamide]",73.7 nM,20.4 nM,–,–
"Cc1cc(-c2cc(O)ccc2Cl)cc2nnc(Nc3ccc(N4CCOCC4)nc3)nc12 [4-chloro-3-[5-methyl-3-(6-morpholin-4-yl-pyridin-3-ylamino)-benzo[1,2,4]triazin-7-yl]-phenol]",2.1 nM,–,–,–
"Cc1cc(-c2cc(O)ccc2Cl)cc2nnc(Nc3cccnc3)nc12 [4-chloro-3-[5-methyl-3-(pyridin-3-ylamino)-benzo[1,2,4]triazin-7-yl]-phenol]",23.5 nM,–,–,–
"Cc1cc(-c2cc(O)ccc2Cl)cc2nnc(Nc3ccc(S(=O)(=O)C4CCNCC4)cc3)nc12 [4-chloro-3-{5-methyl-3-[4-(piperidine-4-sulfonyl)-phenylamino]-benzo[1,2,4]triazin-7-yl}-phenol]",2.8 nM,–,–,–
"Cc1cc2nc(Nc3ccc(OCCN4CCCC4)cc3)nnc2cc1-c1cc(O)ccc1Cl [4-chloro-3-{6-methyl-3-[4-(2-pyrrolidin-1-yl-ethoxy)phenylamino]-benzo[1,2,4]triazin-7-yl}-phenol]",5.7 nM,–,–,–
"Cc1cccc(C)c1-c1cc(C)c2nc(Nc3ccc(C(=O)NCCN4CCCC4)o3)nnc2c1 [5-[7-(2,6-dimethyl-phenyl)-5-methyl-benzo[1,2,4]triazin-3-ylamino]-furan-2-carboxylic acid (2-pyrrolidin-1-yl-ethyl)-amide]",117 nM,–,–,–
"Cc1cc(-c2cc(O)ccc2Cl)cc2nnc(Nc3ccc(C(=O)NCCN4CCCC4)o3)nc12 [5-[7-(2-chloro-5-hydroxy-phenyl)-5-methyl-benzo[1,2,4]triazin-3-ylamino]-furan-2-carboxylic acid (2-pyrrolidin-1-yl-ethyl)-amide]",14.4 nM,–,–,–
"CC(=O)Nc1cc(-c2c(C)cccc2C)cc2nnc(Nc3ccc(OCCN4CCCC4)cc3)nc12 [N-{7-(2,6-dimethyl-phenyl)-3-[4-(2-pyrrolidin-1-yl-ethoxy)-phenylamino]-benzo[1,2,4]triazin-5-yl}-acetamide]",11.5 nM,6.8 nM,–,–
"Cc1cccc(C)c1-c1cc(NS(C)(=O)=O)c2nc(Nc3ccc(OCCN4CCCC4)cc3)nnc2c1 [N-{7-(2,6-dimethyl-phenyl)-3-[4-(2-pyrrolidin-1-yl-ethoxy)-phenylamino]-benzo[1,2,4]triazin-5-yl}-methanesulfonamide]",15.7 nM,20.4 nM,–,–
"CC(=O)Nc1cc(-c2c(C)cccc2C)cc2nnc(Nc3ccc(S(=O)(=O)NCCN4CCCC4)cc3)nc12 [N-{7-(2,6-dimethyl-phenyl)-3-[4-(2-pyrrolidin-1-yl-ethylsulfamoyl)-phenylamino]-benzo[1,2,4]triazin-5-yl}-acetamide]",1850 nM,–,–,–
"Cc1cc(-c2c(Cl)cccc2Cl)cc2nnc(Nc3ccc(OCCN4CCCC4)cc3)nc12 [[7-(2,6-dichloro-phenyl)-5-methyl-benzo[1,2,4]triazin-3-yl]-[4-(2-pyrrolidin-1-yl-ethoxy)-phenyl]-amine]",15 nM,–,–,–
"Cc1cccc(C)c1-c1cc(C)c2nc(Nc3cccc(S(=O)(=O)N4CCN(C)CC4)c3)nnc2c1 [[7-(2,6-dimethyl-phenyl)-5-methyl-benzo[1,2,4]triazin-3-yl]-[3-(4-methyl-piperazine-1-sulfonyl)-phenyl]-amine]",81.3 nM,322 nM,–,–
"Cc1cccc(C)c1-c1cc(C)c2nc(Nc3ccccc3)nnc2c1 [[7-(2,6-dimethyl-phenyl)-5-methyl-benzo[1,2,4]triazin-3-yl]-phenyl-amine]",628 nM,–,–,–
"Cc1cccc(C)c1-c1cc(C)c2nc(Nc3cccc(OCCN4CCN(C)CC4)c3)nnc2c1 [[7-(2,6-dimethyl-phenyl)-5-methyl-benzo[1,2,4]triazin-3-yl]-{3-[2-(4-methyl-piperazin-1-yl)-ethoxy]-phenyl}-amine]",69.1 nM,39.5 nM,–,–
"Cc1cccc(C)c1-c1cc(C)c2nc(Nc3cccc(OCCCN4CCN(C)CC4)c3)nnc2c1 [[7-(2,6-dimethyl-phenyl)-5-methyl-benzo[1,2,4]triazin-3-yl]-{3-[3-(4-methyl-piperazin-1-yl)-propoxy]-phenyl}-amine]",76.3 nM,–,–,–
"Cc1cccc(C)c1-c1cc(C)c2nc(Nc3ccc(OCCCN4CCN(C)CC4)cc3)nnc2c1 [[7-(2,6-dimethyl-phenyl)-5-methyl-benzo[1,2,4]triazin-3-yl]-{4-[3-(4-methyl-piperazin-1-yl)-propoxy]-phenyl}-amine]",50.3 nM,–,–,–
"Cc1cc(-c2cc(O)ccc2Cl)cc2nnc(Nc3ccc(OCCN4CCCC4)cc3)nc12 [[7-(2-chloro-5-hydroxy-phenyl)-5-methyl-benzo[1,2,4]triazin-3-yl]-[4-(2-pyrrolidine-1-yl-ethoxy)-phenyl]-amine]",1.1 nM,1.6 nM,0.5 nM,15.9 nM
"Cc1ccc(F)cc1-c1cc2nnc(Nc3ccc(OCCN4CCCC4)cc3)nc2cc1C [[7-(5-fluoro-2-methyl-phenyl)-6-methyl-benzo[1,2,4]triazin-3-yl]-[4-(2-pyrrolidin-1-yl-ethoxy)-phenyl]-amine]",26.1 nM,–,–,–
"Cc1cc(-c2cc(O)ccc2Cl)cc2nnc(Nc3ccc(C(=O)N4CCNCC4)cc3)nc12 [{4-[7-(2-chloro-5-hydroxy-phenyl)-5-methyl-benzo[1,2,4]triazin-3-ylamino]-phenyl}-piperazin-1-yl-methanone]",1.2 nM,–,–,–
"Cc1cc2nc(Nc3ccc(C(=O)N4CCN(C)CC4)cc3)nnc2cc1-c1cc(O)ccc1Cl [{4-[7-(2-chloro-5-hydroxy-phenyl)-6-methyl-benzo[1,2,4]triazin-3-ylamino]-phenyl}-(4-methyl-piperazin-1-yl)-methanone]",3.7 nM,–,–,–
"COc1ccc(Cl)c(-c2cc3nnc(Nc4ccc(C(=O)N5CCN(C)CC5)cc4)nc3cc2C)c1 [{4-[7-(2-chloro-5-methoxy-phenyl)-6-methyl-benzo[1,2,4]triazin-3-ylamino]-phenyl}-(4-methyl-piperazin-1-yl)-methanone]",3.5 nM,–,–,–
"Cc1ccc(Cl)cc1-c1cc2nnc(Nc3ccc(C(=O)N4CCN(C)CC4)cc3)nc2cc1C [{4-[7-(5-chloro-2-methyl-phenyl)-6-methyl-benzo[1,2,4]triazin-3-ylamino]-phenyl}-(4-methyl-piperazin-1-yl)-methanone]",6 nM,–,–,–
